Data from patent publication US9944583B2, “Methods for ameliorating and preventing central nervous system inflammation” (THE REGENTS OF THE UNIVERSITY OF CALIFORNIA, priority 2007, dated 2018).
Entries after “also recorded” stand apart in the source; their conditions may differ.

How the values were obtained:
[1] = test system: primary neuronal cultures; test: DHE oxidation (superoxide and/or hydrogen peroxide production) in primary neuronal cultures exposed to ketamine; type: cell-based, mouse; conditions: ketamine 0.5 μM, 24 h
[2] = test system: NADPH oxidase (Nox); test: Nox activity in synaptosomes by NADPH-dependent oxygen consumption (oximetry); type: biochemical, mouse; conditions: ketamine 30 mg/kg in vivo on two consecutive days
Protocol: Synaptosomal preparations. […] Mice were euthanized by exposure to a lethal dose of inhaled halothane, followed by cervical dislocation. Brains were rapidly removed, cortices dissected and homogenized in 10 volumes of ice-cold isolation buffer (0.32M sucrose, 1 mM EDTA, 10 mM Tris-HCl buffer, pH 7.4, 10 mM glucose). The homogenate was centrifuged at 3100 rpm for 3 min at 4° C., and the supernatant collected, and the pellet was re-homogenized in half the volume of isolation buffer and centrifuged again. Synaptosomal were then isolated as described (see reference 30, below) modified as follows, the pooled supernatants were mixed with PERCOLL™ (Sigma, St. Louis, Mo.) to a final concentration of 15%, and then layered onto a step gradient of 23% and 40% PERCOLL™, and centrifuged at 16,000 rpm for 5 minutes at 4° C. The uppermost band was extracted, rinsed in isolation buffer, centrifuged and resuspended in synaptosomal buffer (120 mM NaCl, 4.7 mM KCl, 2.2 mM CaCl2, 1.2 mM MgCl2, 25 mM HEPES, 1.2 mM MgSO4, 1.2 mM KH2PO4, 10 mM glucose).
Oxygen consumption studies (oximetry). O2 consumption studies on synaptosomes are carried out. […] Studies were carried out to optimize the concentration of synaptosomal protein required, and to confirm stability and viability of synaptosomes and their mitochondria for up to 6 h.

[3] = test system: PV-interneurons in mouse prefrontal cortex; test: two-day ketamine treatment of mice: oxidized DHE, parvalbumin and GAD67 in prefrontal cortex; type: in vivo
Protocol: Animals and treatments. […] Male C57BL6 mice were obtained from Jackson Labs, Bar Harbor, Me., at 8-12 weeks and housed in our facility until 15 weeks when they were used for experiments. Ketamine (30 mg/kg) was applied intraperitoneally (IP) on two consecutive days at around 4 pm. DHE was applied 30 min after the last ketamine injection as described (19, 20). Briefly, two serial i.p. injections of freshly prepared dihydroethidium (27 mg/kg) are given at 30 minute intervals. Eighteen hours later, mice are anesthetized with inhaled halothane, and perfused intracardially with cold saline followed by 4% paraformaldehyde in PBS. The Nox inhibitor, apocynin (5 mg/kg/day) was given in the drinking water for a total of seven days, with an assumed intake of […] H2O/mouse/day, and ketamine was applied on the last two days. […] All animal studies were approved by the Animal Care Program at the University of California, San Diego, and are in accordance the PHS Guide for the Care and Use of Laboratory Animals, USDA Regulations, and the AVMA Panel on Euthanasia.
Immunohistochemistry: Brains were frontally sliced in a vibratome into 50 μm coronal sections encompassing the prefrontal cortex region (from Bregma 2.0 to 1.3). Sequential slices were processed for floating-section double immunohistochemistry for the detection of parvalbumin and GAD67. Antigen retrieval was performed by incubation of the slices in 1% sodium borohydride for 15 min as described (see reference 34, below), followed by washing in PBS and incubation in 10% normal goat serum in PBS for 16 h at 4° C. Primary antibodies (Calbindin: 1:5000: Calretinin: 1:2000; Parvalbumin: 1:3000, all rabbit polyclonals from Swant, Bellinzona, Switzerland. GAD67: 1:1000, from Chemicon-Millipore, Temecula, Calif.) were diluted in 2% normal goat serum in PBS and applied to the slices for 18 h at 4° C., after which slices were washed in PBS and incubated in a 1:1000 dilution of ALEXAFLUOR™ (Molecular Probes, Invitrogen, Carlsbad, Calif.) conjugated goat anti-rabbit (568) or goat anti-mouse (488) antibodies for 1 hr at room temperature (rt). Slices were washed in PBS and mounted sequentially in glass slides using […]™ (Vector Laboratories, Burlingame, Calif.), covered with a coverslip and allowed to dry for at least 24 h before confocal imaging.
Six slices were analyzed per animal.
Analysis of superoxide and/or hydrogen peroxide production by confocal imaging of in vivo dihydroethidium (DHE) oxidation. Mice will be injected intraperitoneally (i.p.) with dihydroethidium.

[4] = test system: PV-interneurons in mouse prefrontal cortex; test: as above; type: in vivo; conditions: 24 h following a single ketamine exposure
[5] = test system: synaptosomal mitochondria; test: respiration of synaptosomal mitochondria (oximetry); conditions: after in vivo ketamine 30 mg/kg, two days
[6] = test system: primary cultures; conditions: ketamine 0.5 μM, 1 h and 3 h
[7] = test system: IL-6 mRNA; test: cytokine mRNA by RT-PCR in ketamine-treated primary neuronal cultures; conditions: ketamine 0.5 μM, up to 24 h
[8] = test system: Nox2, Nox4, p22phox; test: Western blot of Nox proteins in brain membranes after in vivo ketamine; conditions: ketamine 30 mg/kg i.p., two consecutive days
[9] = test system: Nox2; test: Nox expression in primary neuronal cultures (immunocytochemistry, Western blot)
[10] = test system: PV-interneurons; test: parvalbumin and GAD67 immunoreactivity in PV-interneurons in primary neuronal cultures; conditions: ketamine 0.5 μM, 24 h
[11] = test system: primary neuronal cultures; test: IL-6 exposure of primary neuronal cultures: oxidized DHE, Nox2, parvalbumin and GAD67; type: cell-based, mouse
Protocol: IL-6 increases superoxide in a Nox dependent manner, and reduces GAD67 and parvalbumin in primary cultures, as summarized by the data graphically presented in FIG. 18. […] As before, dihydroethidium (DHE) was applied for the last hour (DHE detects superoxide and hydrogen peroxide). After fixation, ICC for PV and GAD67 was carried out as described in methods and quantitative confocal microscopy was utilized for fluorescence analysis.
DHE (1 μg/ml) was added during the last hour of treatment. Images show the increase in Nox2 immunoreactivity and oxidized DHE upon treatment with IL-6. Bar-graphs show the results of quantification of oxidized DHE and Nox2 fluorescence expressed as % of control. […] Data are means±SEM. Baseline intensities: DHE=21±4.7; Nox2=18.7±2.6.
Fluorescence confocal images of representative fields depicting the expression of parvalbumin (PV) and GAD67 in PV-interneurons. Bar-graph represents the quantification of fluorescence expressed as % of control. […] Data are means±SEM. Baseline intensities: PV=135±32; GAD67=114±26.
IL-6 potentiates ketamine effects on PV-interneurons. […] After fixation, ICC for GAD67 and parvalbumin was carried out as described by Kinney (2006) J. Neurosci. […] N=3 cultures per condition.

[12] = target: T1, NADPH oxidase (Mus musculus, UniProt Q61093); test: EPR superoxide production by forebrain synaptosomes exposed to IL-6; type: biochemical; conditions: IL-6 100 ng/ml, synaptosomes
T1 sequence (Q61093 1-570): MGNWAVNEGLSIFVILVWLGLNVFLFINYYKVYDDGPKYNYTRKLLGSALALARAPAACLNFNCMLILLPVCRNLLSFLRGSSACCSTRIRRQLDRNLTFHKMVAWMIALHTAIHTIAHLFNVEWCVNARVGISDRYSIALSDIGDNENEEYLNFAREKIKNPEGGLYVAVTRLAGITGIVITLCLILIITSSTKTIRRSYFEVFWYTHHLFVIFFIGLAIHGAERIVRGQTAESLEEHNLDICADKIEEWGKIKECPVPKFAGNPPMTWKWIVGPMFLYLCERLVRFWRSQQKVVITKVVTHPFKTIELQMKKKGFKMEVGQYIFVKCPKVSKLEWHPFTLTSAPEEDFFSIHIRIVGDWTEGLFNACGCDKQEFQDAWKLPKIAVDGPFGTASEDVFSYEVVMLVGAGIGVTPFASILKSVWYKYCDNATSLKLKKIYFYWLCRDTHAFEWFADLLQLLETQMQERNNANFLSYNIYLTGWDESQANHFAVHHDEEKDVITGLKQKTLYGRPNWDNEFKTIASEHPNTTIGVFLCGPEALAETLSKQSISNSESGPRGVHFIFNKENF
T1 sequence (Q61462 1-192 partner): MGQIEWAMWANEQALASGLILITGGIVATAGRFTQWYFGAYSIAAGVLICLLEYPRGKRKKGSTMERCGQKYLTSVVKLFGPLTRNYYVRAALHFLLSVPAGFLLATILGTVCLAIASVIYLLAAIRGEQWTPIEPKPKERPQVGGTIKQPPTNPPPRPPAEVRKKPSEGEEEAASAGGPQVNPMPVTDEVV

[13] = IL-6 i.p. in young and old mice: plasma IL-6 (ELISA) and tolerability; type: in vivo
Protocol: Plasma IL-6 is increased with aging or after intraperitoneal (i.p.) administration of IL-6, as illustrated by data shown in FIG. 44. […] IL-6 was assayed by ELISA (R&D Systems, Minneapolis, Minn.). Mice were then given a direct intraperitoneal (IP) injection of 3 μg/kg IL-6 on two consecutive days, and plasma IL-6 was assayed 16 hours (hr) after the last injection. […] Since the half-life of IL-6 in plasma is 4 hr, the sustained increase in IL-6 after injection may indicate induction of new IL-6 synthesis in young mice, which may be suppressed by the high endogenous IL-6 levels in old mice.

[14] = test system: Jak2; test: Jak2 phosphorylation in cortical neurons exposed to IL-6; type: cell-based, mouse; conditions: IL-6 20 ng/ml, 1 h, absence of astrocytes
Protocol: Exposure of cortical neurons to IL-6 (20 ng/ml, 1 h in the absence of astrocytes) increased the phosphorylation of the protein kinase Jak2, which transduces the signal from the activated IL-6 receptor, as illustrated by the data shown in FIG. 34A. […] Prolonged exposure (24 h) to the interleukin increased production of superoxide (as determined by DHE oxidation) and increased the expression of Nox2 in neurons, as illustrated by the data shown in FIG. 34B. The role of Nox2 activation in the increase in DHE oxidation was confirmed by co-exposure to the Nox inhibitor apocynin (0.5 mM) (FIG. 34B bottom panels).
For FIGS. 34A-34B: primary neuronal cultures were developed on coverslips as described Kinney et al., 2006, supra. After 21 days in culture, coverslips containing neurons were separated from the astrocytic monolayers, washed in HCSS and subjected to IL-6 treatment for 1 hour (FIG. 34A) or treated with IL-6 for 24 h on top of the astrocyte monolayer (FIG. 34B). After treatment, the coverslips were fixed in paraformaldehyde and processed for double fluorescence immuno-cytochemistry using the following antibodies: anti-GAD67 (1:2000, Chemicon. Red) anti-phospho-Jak2 (1:100, Cell Signaling. Green), and anti-Nox2 (1:300, monoclonal 54.1 Green). […] Secondary antibodies were conjugated to ALEXAFLUOR 488™ (green fluorescence) and ALEXAFLUOR 568™ (red fluorescence).

[15] = in vivo; cited from earlier work
[16] = test system: Nox2; test: IL-6 i.p. on two consecutive days in mice: brain and synaptosomal Nox; conditions: IL-6 5 μg/kg i.p. on two consecutive days
[17] = 2-day ketamine, saline 30.1±14.3
[18] = ketamine 30 mg/kg i.p., two consecutive days

CNC1(c2ccccc2Cl)CCCCC1=O (centres unmarked) [ketamine]
oxidized DHE (neuronal superoxide and/or hydrogen peroxide production) [1]: significant increase; also recorded: pronounced increase
Nox activity in synaptosomes [2]: pronounced increase
GAD67 in calbindin cells, mean intensity±SD [3, 17]: 44.2±14.5
GAD67 in calretinin cells, mean intensity+SD [3, 17]: 44.2±14.5
calretinin, mean intensity+SD ([3]; 2-day ketamine, saline 133.6±35.6): 139.4±28.7
calbindin, mean intensity±SD ([3]; 2-day ketamine, saline 215.6±32.1): 231.6±25.6
oxidized DHE in brain / PFC [3, 18]: widespread increase; also recorded: pronounced increase
parvalbumin and GAD67 immunoreactivity in PV-interneurons of PFC [3, 18]: significant reduction; also recorded: pronounced decrease
effects on PV-interneurons in the prefrontal region [4]: not present
metabolic activities of synaptosomal mitochondria [5]: not affected
superoxide signals (EPR, DIPPMPO) [6]: rapid increase
levels of other pro-inflammatory cytokines (IL-1, TNF mRNA) [7]: without affecting
expression of Nox2 and p22phox in membrane preparations of cortical tissue [8]: significant increase
Nox4 expression ([9]; after ketamine treatment, cultures): did not see changes
Nox2 immunoreactivity, fluorescence quantification ([9]; ketamine 0.5 μM, 24 h, control 100+/−8%): 170+/−15%
parvalbumin immunoreactivity [10]: reduction

IL-6: pro-inflammatory cytokine interleukin-6
immunoreactivity of GAD67 and parvalbumin in PV-interneurons ([11]; IL-6 10 ng/ml, 24 h): decreased
levels of DHE oxidation ([11]; IL-6 10 ng/ml, 24 h): increased
effect on parvalbumin and GAD67 immunoreactivity with sub-threshold ketamine ([11]; IL-6 10 ng/ml, ketamine, 24 h): increased the effects of ketamine
expression of Nox2 ([11]; IL-6, 24 hours): pronounced increase
superoxide production (EPR, DEPMPO) [12]: small but significant increase
plasma IL-6 16 hr after the last injection ([13]; 3 μg/kg IL-6 i.p. on two consecutive days): increased plasma IL-6 in young, but not old, mice
tolerability of higher doses ([13]; IL-6 12 μg/kg): induced the sickness response and generalized inflammatory reaction
phosphorylation of Jak2 [14]: increased
half-life in plasma [15]: 4 h
Nox activity in synaptosomal preparations [16]: significant induction
